Experimental data as given in US4563471A, “4-Oxothiazolidin-2-ylidene-acetamide derivatives as CNS agents” (Warner-Lambert Company, priority 1983, dated 1986).
Like-named read-outs stand apart in the source and are kept apart here.

How the values were obtained:
DBA/2j mice = assay: Audiogenic cramps; format: in vivo, mouse; conditions: po, 1 min, read-out: ED50 audiogenic cramp
Method: (§1) In the case of all substances, there was used in the cramp test as vehicle 0.8% Methocel mucilage. The premedication time amounted to 30 minutes, insofar as nothing else is stated, and the administration took place i.g. in 20 ml/kg body weight.
(§2) In the case of the audiogenic cramps, DBA/2j mice of male sex were used in a weight of 5-10 g which, on the day before the experiment, were removed and not fasted.
(§3) Per dosage, in each case ten animals were subjected to the test.
9. […] The observation time amount to one minute.

male mice (NMRI) [1] = assay: Strychnine cramp; format: in vivo, mouse; conditions: for ED50 strychnine cramp: i.g., male mouse, strychnine 1.1 mg/kg s.c., observation 20 min; for ED50: Mus musculus, po, 20 min, read-out: ED50 strychnine cramp
Method: as §1
(§4) Experimental animals were male mice (NMRI) with a body weight of 18 to 24 g., which were kept under controlled conditions. Twenty-four hours (if not stated otherwise) before commencement of the experiment, the feed was withdrawn but, up to the commencement of the experiment, the drinking water was left.
as §3
2. Strychnine cramp--As convulsive, there was used strychnine nitric cryst in a dosage of 1.1 mg/kg s.c., whereby the observation time amount to 20 minutes p.a.

male mice (NMRI) [2] = assay: Semicarbazide cramp; format: in vivo, mouse; conditions: po, 1.5 h; for ED50: read-out: ED50 semicarbazide cramp
Method: as §1, §4, §3
7. Semicarbazide cramp--Semicarbazide hydrochloride was used as cramp agent in a dosage of 1000 mg/kg s.c. The observation time amounted in each case to 90 minutes p.a.

male mice (NMRI) [3] = assay: Bicuculline cramp; format: in vivo; conditions: po, 20 min; i.g., male mouse; bicuculline 3.0 mg/kg s.c.; observation 20 min
Method: as §1, §4, §3
(§5) As positive standard, there were used phenytoin, valproate, GABA and baclofen.
6. Bicuculline cramp--Cramp agent was bicuculline purum. The dosage amounted to 3.0 mg/kg s.c. The observation time amount to 20 minutes.

male mice (NMRI) [4] = assay: Picrotoxin cramp; format: in vivo, mouse; conditions: for ED50: Mus musculus, po, 20 min, read-out: ED50 picrotoxin cramp; for ED50 picrotoxin cramp: i.g., male mouse, picrotoxin 15 mg/kg s.c., observation 20 min
Method: as §1, §4, §3

male mice (NMRI) [5] = assay: Isoniazide cramp; format: in vivo, mouse; conditions: po, 1.5 h, read-out: ED50 isoniazide cramp
Method: as §1, §4, §3

male mice (NMRI) [6] = assay: Electroshock; format: in vivo, mouse
Method: as §1, §4, §3
3. […] For the transmission of the current impact, electrodes in the form of ear clips were fixed to the ears of the mouse. The period of the shock amounted to 0.3 s., the current strength to 35 mA (voltage self-regulating).

male mice (NMRI) [7] = assay: Pentetrazole cramp; format: in vivo, mouse; conditions: po, 20 min; for ED50: read-out: ED50 pentetrazole cramp
Method: as §1, §4, §3

male mice (NMRI) [8] = assay: 3-Mercaptopropionic acid cramp (3-MPA); format: in vivo, mouse; conditions: po, 0.5 h, read-out: ED50 3-MPA cramp
Method: as §1, §4, §3
8. 3-Mercaptopropionic acid--3-Mercaptopropionic acid was diluted with physiological NaCl solution, adjusted with 6 mol/l NaOH to PH 7 and brought with NaCl solution to the end volume (10 ml/kg). The observation time amounted to 30 minutes.

in vivo = conditions: mouse, po
Method: The determination of the acute toxicity was carried out on male mice (NMRI) with a body weight of 18-23 g. All experimental animals were fasted for 20 hours before commencement of the experiment. Water was available ad libitum. To each dosage group there belonged four animals. The dosage sequence was logarithmic. The test substances were administered intragastrally as suspension in 0.88% Methocel. The volume of administration amounted to 20 ml/kg.

mice = assay: Comparative investigations of the anticonvulsive action in cramp models 1-9 (overall); format: in vivo; conditions: all cramp models, i.g., male mouse
Method: as §1, §4, §2, §3, §5

[9] = i.g., male DBA/2j mouse, 10.9 KHz sound of 110 dBA, 30 s, observation 1 min
[10] = i.g., male mouse, isoniazide 250 mg/kg s.c., observation 90 min
[11] = i.g., male mouse, 3-mercaptopropionic acid, observation 30 min
[12] = i.g., male mouse, semicarbazide hydrochloride 1000 mg/kg s.c., observation 90 min
[13] = po, 5 min, i.g., male mouse, 35 mA, 0.3 s, observation 5 min, read-out: ED50 electroshock
[14] = i.g., male mouse, pentetrazole 140 mg/kg s.c., observation 20 min

SMILES	ED50 (DBA/2j mice; [9]) [mg/kg]	ED50 strychnine cramp (male mice (NMRI) [1])	ED50 (male mice (NMRI) [3]) [mg/kg]	ED50 (male mice (NMRI) [4]) [mg/kg]	ED50 (male mice (NMRI) [5]; [10]) [mg/kg]	ED50 (male mice (NMRI) [8]; [11]) [mg/kg]	ED50 (male mice (NMRI) [1]) [mg/kg]	ED50 (male mice (NMRI) [2]; [12]) [mg/kg]	LD50 at 168 h (in vivo) [mg/kg]	selectivity ratio (in vivo)	ED50 (male mice (NMRI) [6]; [13]) [mg/kg]	ED50 (male mice (NMRI) [7]; [14]) [mg/kg]	other results
O=C1NC(=O)C(c2ccccc2)(c2ccccc2)N1 [phenytoin]	2.3	inactive	12.5	200	38								ED90 (male mice (NMRI) [2]; ED 90, i.g., male mouse): 50 mg/kg; ED50 (male mice (NMRI) [6]; Mus musculus, iv, 5 min, read-out: ED50 electroshock (i.v.)): 12.5 mg/kg; ED100 (male mice (NMRI) [6]; po, 5 min, ED 100, i.g., male mouse): 50 mg/kg; ED100 (male mice (NMRI) [7]; ED 100, i.g., male mouse): 50 mg/kg
CN1C(=O)CS/C1=C\C(=O)Nc1c(Cl)cccc1Cl [2 (j), (Z)-(3-methyl-4-oxothiazolidin-2-ylidene)-N-(2,6-dichlorophenyl)-acetamide]	2		0.8	1.52	5	1.73	5.68	3.41	1600	282 to 2000	4.03	1.8	
Cc1cccc(C)c1NC(=O)/C=C1\SCC(=O)N1C [2 (a), (Z)-(3-Methyl-4-oxothiazolidin-2-ylidene)-N-(2,6-dimethylphenyl)-acetamide]	2.9		2.68	11.3	5.32	8.7	14.9	14.1	1980	99.8 to 739	13.6	19.9	
NCCCC(=O)O [GABA]		inactive						60				500	ED50 picrotoxin cramp (male mice (NMRI) [4]): inactive; ED50 electroshock (male mice (NMRI) [6]; i.g., male mouse, 35 mA, 0.3 s, observation 5 min): inactive
NCC(CC(=O)O)c1ccc(Cl)cc1 (centres unmarked) [baclofen]			20	30			8.5		200	2 to 100			ED50 (DBA/2j mice; Mus musculus): 5 mg/kg; ED50 (male mice (NMRI) [8]; Mus musculus): 20 mg/kg; ED50 (male mice (NMRI) [2]; Mus musculus): 4 mg/kg; ED50 (male mice (NMRI) [5]; Mus musculus): 2 mg/kg; ED50 (male mice (NMRI) [6]; Mus musculus, po, 5 min, read-out: ED50 electroshock): 20 mg/kg; ED50 (male mice (NMRI) [7]; Mus musculus): 100 mg/kg; Side effects (mice): Side effects in all models
CCCC(CCC)C(=O)O [valproate]		inactive							2000	8 to 14.8			ED50 (male mice (NMRI) [8]; Mus musculus): 154 mg/kg; ED50 (male mice (NMRI) [2]; Mus musculus): 100 mg/kg; ED50 picrotoxin cramp (male mice (NMRI) [4]): inactive; ED50 (male mice (NMRI) [5]; Mus musculus): 135 mg/kg; ED40 (male mice (NMRI) [6]; Mus musculus, po, 5 min, read-out: ED 40 electroshock): 200 mg/kg; ED50 (male mice (NMRI) [7]; Mus musculus): ~250 mg/kg
Cc1cccc(Cl)c1NC(=O)/C=C1\SCC(=O)N1C [2 (i), (Z)-(3-methyl-4-oxothiazolidin-2-ylidene)-N-(2-chloro-6-methylphenyl)-acetamide]	3		0.9	2.34	1.24	1.29	5.09	1.59	> 1600	243 to 1780	6.47	1.9	
